This is an account of results in US7939546B2, “Quinoline derivatives for modulating DNA methylation” (SuperGen, Inc., priority 2007, dated 2011).

In general, IC50 refers to the concentration at which inhibition is half-maximal.

Structures are written as SMILES.

One experiment has as its system p16. Briefly: RT-PCR assay for gene expression (p16) in RKO and HCT-116 cells. To be noted: for RNA expression levels of p16: FIG. 1, varying concentrations, forty eight hour incubation. In kind it is cell-based. How it is done:
RKO and HCT-116 cells were treated with Cpd. AAA, Cpd. BBB, and Cpd. CCC at varying concentrations. After a forty eight hour incubation cells were harvested for RNA isolation using the Qiagen RNeasy Mini kit. RNA was quantified using a spectrophotometer and 1 μg of RNA was used for cDNA synthesis using the Bio-Rad iScript cDNA Synthesis Kit. RTPCR was performed using SYBER GreenER qPCR SuperMix for iCycler according to the manufacturer's protocol. Primer sequences used are as follows [NT] (SEQ ID NO: 2) and [NT] (SEQ ID NO: 3), MLH-1 [NT] (SEQ ID NO: 4) and [NT] (SEQ ID NO:5), [NT] (SEQ ID NO: 6) and [NT] (SEQ ID NO: 7), GAPDH [NT] (SEQ ID NO:8) and [NT] (SEQ ID NO:9), and […] (SEQ ID NO: 10) and [NT] (SEQ ID NO:11). Samples were analyzed on the iQ5 Multicolor Real-Time PCR Detection System from Bio-Rad. Data analysis was performed using the iQ5 Optical System Software version 2.0, Threshold Cycle (CT) and CT mean values were determined from this software. For each sample there are at least four reactions, two for p16 and two for GAPDH the housekeeping control. The mean CT value from the GAPDH reactions was subtracted from each of the corresponding p16 samples CT giving a value termed Delta CT. Then the Delta CT for the untreated p16 sample is subtracted from all treated Delta CT values giving another value termed Delta Delta CT. […] The duplicate samples are averaged together to get an average Relative Expression for each treatment and the Standard Error is calculated. Relative expression values for p15 and MLH-1 were calculated using the same method. […] AAA, Cpd. BBB, and Cpd. […] Cpd. […] Because the higher levels of p16 seemed to have less effect in causing re-expression of p16 there may be some issues with drug solubility or toxicity at the higher concentrations tested.

Another experiment relates to HCT-116. Briefly: Cell-based growth assay (Cell-Titer-Glo), HCT-116. To be noted: Homo sapiens; HCT-116, 96 hours; read-out: IC50 Values CTG. On the procedure: (§1) Cell culture-based assays can be used to evaluate the ability of compounds of the invention to inhibit one or more cellular activities, such as cancer cell growth and/or survival. Numerous cancer cell lines can be obtained from the American Type Culture Collection (ATCC) and other sources. Briefly, cells are seeded into 96-well, tissue-culture treated, opaque white plates (Thermo Electron, Vantaa, Finland), at between 5000 and 10000 cells per well, depending on the speed of cell proliferation, in 100 μl of appropriate growth medium (determined by the ATCC). Cells are then exposed to the appropriate concentration of drug or an equal amount of DMSO (drug diluent) and allowed to grow in its presence for 96 hours. Following this, 100 μl of Cell-Titer-Glo (CTG) reagent (Promega, Inc., Madison, Wis.) is added to each well. Plates are then shaken for 2 minutes at room temperature to allow for cell lysis and incubated for 10 minutes at room temperature to stabilize the luminescent signal. Similar to the Kinase-Glo assay reagent from Promega, this reagent contains both luciferase enzyme and its substrate luciferin. Luciferase, activated by ATP in the cell lysate, catalyzes the conversion of luciferin to oxyluciferin, a reaction which produces light. […]

The next experiment relates to RKO. Briefly: Cell-based growth assay (Cell-Titer-Glo), RKO. To be noted: Homo sapiens, 96 hours, read-out: IC50 Values CTG. How it is done: Cell culture-based assays can be used to evaluate the ability of compounds of the invention to inhibit one or more cellular activities, such as cancer cell growth and/or survival. Numerous cancer cell lines can be obtained from the American Type Culture Collection (ATCC) and other sources. Briefly, cells are seeded into 96-well, tissue-culture treated, opaque white plates (Thermo Electron, Vantaa, Finland), at between 5000 and 10000 cells per well, depending on the speed of cell proliferation, in 100 μl of appropriate growth medium (determined by the ATCC). Cells are then exposed to the appropriate concentration of drug or an equal amount of DMSO (drug diluent) and allowed to grow in its presence for 96 hours. Following this, 100 μl of Cell-Titer-Glo (CTG) reagent (Promega, Inc., Madison, Wis.) is added to each well. Plates are then shaken for 2 minutes at room temperature to allow for cell lysis and incubated for 10 minutes at room temperature to stabilize the luminescent signal. Similar to the Kinase-Glo assay reagent from Promega, this reagent contains both luciferase enzyme and its substrate luciferin. Luciferase, activated by ATP in the cell lysate, catalyzes the conversion of luciferin to oxyluciferin, a reaction which produces light. The amount of light produced is proportionate to the amount of ATP in the cell lysate, which is itself proportional to cell number and gives an index of cellular proliferation.

For the next experiment, the system named is Panc-1. Briefly: Cell-based growth assay (Cell-Titer-Glo), Panc-1. To be noted: Homo sapiens; Panc-1, 96 hours; read-out: IC50 Values CTG. On the procedure: as §1
Another experiment has as its target DNMT1 (Homo sapiens, UniProt P26358). Briefly: DNMT1 Inhibition Assay (Epigentek DNMT1 Activity/Inhibition kit). To be noted: 100 μM SAM, 2.2 μg/ml DNMT1 enzyme. In kind it is biochemical. On the procedure: The DNMT1 Activity/Inhibition kit from Epigentek Inc. (Brooklyn, N.Y.) was used in this experiment (Catalog No. P-3006). In general terms, this assay utilizes an active DNMT1 enzyme incubated with S-adenosylmethionine (SAM) in 96-well plates upon which unmethylated DNA has been immobilized onto the surface of each well. After incubation the reaction wells are washed and probed with a primary anti-methylcytosine antibody, which will bind to methylated DNA. A secondary antibody is then used to detect the primary antibody and creates a signal that is proportional to the amount of methylated DNA in the well. Uninhibited DNMT1 produces a well with high levels of methylated DNA (high signal), whereas inhibited DNMT1 produces a well with low levels of methylation (low signal). The final concentrations of reagents used in this DNMT1 assay were as follows: 100 μM SAM and 2.2 μg/ml DNMT1 enzyme, with inhibitor concentrations typically ranging from 100 μM to 0.781 μM.
More specifically, test compounds were resuspended in 100% DMSO at 3 mM and serially diluted 1:2 in DMSO 8 times. A volume of 100 μl of 1× assay buffer was combined with 12 μl of 1 mM SAM solution and 4 μl of 66.7 μg/mL DNMT1 enzyme in the presence of 4 μl of test compound diluted in DMSO. Controls include enzyme only (no inhibitor, but containing 3.3% DMSO), no enzyme, and compounds having inhibitory activity. A volume of 30 μl of the mixed solution was then added to the substrate-coated wells in triplicate and incubated at 37° C. for 2 hours. Reaction wells are then washed 3× with 150 μl of DNMT wash buffer. The primary antibody (anti-methylcytosine) was diluted 1:1000 in wash buffer, added to each well (50 μl) and incubated at room temperature for 1 hour. Reaction wells were washed again. The secondary antibody was diluted 1:1000 in wash buffer, added to each well (50 μl) and incubated at room temperature for 30 min. The wells were washed for the last time. […] The stop solution was added (50 μl) and the plate was immediately read on a plate reader at 450 nm absorbance. […]

Chain of DNMT1 (P26358 whole entry, species assumed): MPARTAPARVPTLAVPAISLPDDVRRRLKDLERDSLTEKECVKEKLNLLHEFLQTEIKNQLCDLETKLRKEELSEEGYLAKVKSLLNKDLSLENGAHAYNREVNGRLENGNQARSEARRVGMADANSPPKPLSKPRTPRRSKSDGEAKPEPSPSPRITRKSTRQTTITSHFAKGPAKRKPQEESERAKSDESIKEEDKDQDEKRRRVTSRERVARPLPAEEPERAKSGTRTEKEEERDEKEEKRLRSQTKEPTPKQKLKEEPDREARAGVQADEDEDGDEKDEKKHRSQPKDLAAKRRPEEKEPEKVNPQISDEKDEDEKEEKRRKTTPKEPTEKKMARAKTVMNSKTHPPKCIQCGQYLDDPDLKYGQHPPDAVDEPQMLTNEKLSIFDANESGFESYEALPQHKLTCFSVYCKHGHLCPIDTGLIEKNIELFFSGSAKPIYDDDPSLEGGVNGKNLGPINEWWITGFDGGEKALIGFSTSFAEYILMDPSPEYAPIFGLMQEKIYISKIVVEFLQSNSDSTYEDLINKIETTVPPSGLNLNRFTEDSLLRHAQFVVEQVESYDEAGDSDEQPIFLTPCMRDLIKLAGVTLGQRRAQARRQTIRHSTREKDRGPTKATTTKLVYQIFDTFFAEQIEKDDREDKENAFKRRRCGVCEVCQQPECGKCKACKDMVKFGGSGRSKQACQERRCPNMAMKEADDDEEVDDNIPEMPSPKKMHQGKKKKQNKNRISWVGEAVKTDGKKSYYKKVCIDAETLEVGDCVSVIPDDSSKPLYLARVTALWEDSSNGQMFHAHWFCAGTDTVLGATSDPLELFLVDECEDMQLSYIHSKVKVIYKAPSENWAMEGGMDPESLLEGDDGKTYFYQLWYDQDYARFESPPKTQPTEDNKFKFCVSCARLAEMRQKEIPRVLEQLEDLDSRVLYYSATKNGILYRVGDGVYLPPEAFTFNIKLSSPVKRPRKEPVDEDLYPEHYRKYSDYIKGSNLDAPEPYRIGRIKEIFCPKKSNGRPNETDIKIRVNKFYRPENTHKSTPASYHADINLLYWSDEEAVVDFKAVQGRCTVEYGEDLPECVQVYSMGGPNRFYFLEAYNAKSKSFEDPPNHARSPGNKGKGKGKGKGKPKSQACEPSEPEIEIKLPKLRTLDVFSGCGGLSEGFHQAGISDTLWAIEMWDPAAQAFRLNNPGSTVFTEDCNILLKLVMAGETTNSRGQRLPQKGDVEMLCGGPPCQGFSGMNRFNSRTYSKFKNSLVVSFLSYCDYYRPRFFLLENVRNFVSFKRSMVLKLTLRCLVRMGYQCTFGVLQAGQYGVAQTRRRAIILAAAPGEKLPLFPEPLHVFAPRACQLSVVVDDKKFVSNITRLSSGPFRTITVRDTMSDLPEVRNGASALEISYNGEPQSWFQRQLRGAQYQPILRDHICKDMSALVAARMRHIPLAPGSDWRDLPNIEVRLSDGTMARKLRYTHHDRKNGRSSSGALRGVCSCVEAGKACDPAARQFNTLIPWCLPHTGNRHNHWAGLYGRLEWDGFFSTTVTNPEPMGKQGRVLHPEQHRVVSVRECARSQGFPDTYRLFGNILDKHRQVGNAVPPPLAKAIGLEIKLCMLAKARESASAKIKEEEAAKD

As to `Cl.O=C(Nc1ccc(Sc2ccncc2)cc1)c1ccc(Nc2ccnc3ccccc23)cc1` [Cpd. AAA, N-[4-(pyridin-4-ylthio)phenyl]-4-(quinolin-4-ylamino)benzamide hydrochloride], the “RNA expression levels of p16” value in the experiment with p16 was “increase the RNA expression levels of p16”. In addition, in the experiment on p16 (concentration of 0.11 M (so in the source)), the “re-expression of p16 over no treatment” value is “greatest re-expression of p16”. Also, the IC50 in the experiment on HCT-116 came to 6150 nM; in the experiment on RKO, 1220 nM; with Panc-1, 1800 nM.
As for `Cl.Nc1cc(Sc2ccc(NC(=O)c3ccc(Nc4ccnc5ccccc45)cc3)cc2)ccn1` [Cpd. BBB, N-[4-(2-aminopyridin-4-ylthio)phenyl]-4-(quinolin-4-ylamino)benzamide hydrochloride], the “RNA expression levels of p16” value in the experiment on p16 is on record as “increase the RNA expression levels of p16”. Further, the IC50 in the experiment on HCT-116 stood at 670 nM; with RKO it was 740 nM; with Panc-1 it was 1000 nM.
For the compound `Cl.O=C(Nc1ccc(Sc2ccnc(O)c2)cc1)c1ccc(Nc2ccnc3ccccc23)cc1` [Cpd. CCC, N-[4-(2-hydroxypyridin-4-ylthio)phenyl]-4-(quinolin-4-ylamino)benzamide hydrochloride], the “RNA expression levels of p16” value in the experiment with p16 is reported as “increase the RNA expression levels of p16”. Moreover, in the experiment on RKO, the IC50 turned out to be 6600 nM.
Turning to `O=C(Nc1ccc(SC2CNC(C(=O)O)C2)cc1)c1ccc(Nc2ccnc3ccccc23)cc1` (centres unmarked) [Cpd. DDD, 4-(4-(4-(quinolin-4-ylamino)benzamido)phenylthio)pyrrolidine-2-carboxylic acid], the midpoint of inhibition against DNMT1, the IC50, lay at 1600 nM.
For the compound `O=C(Nc1ccc(SC2CCNC2)cc1)c1ccc(Nc2ccnc3ccccc23)cc1` (centres unmarked) [Cpd. EEE, 3-(4-(4-(quinolin-4-ylamino)benzamido)phenylthio)pyrrolidine], 5500 nM corresponded to half-maximal inhibition on DNMT1 (IC50).
On the same count and under the same terms, with `O=C(Nc1ccc(SC2CCCNC2)cc1)c1ccc(Nc2ccnc3ccccc23)cc1` (centres unmarked) [Cpd. GGG, N-(4-(piperidin-3-ylthio)phenyl)-4-(quinolin-4-ylamino)-benzamide] the figure was 310 nM.
